Experimental data taken from BindingDB's records for doi:10.1021/jm00072a005 (University of Paris, 1993).

target: Gastrin/cholecystokinin type B receptor (Cavia porcellus); experiment: Tested for inhibition of [3H]pCCK-8 specific binding to cholecystokinin type B receptor in guinea pig brain cortex

| SMILES | Ki |
| --- | --- |
| CC(Cc1c[nH]c2ccccc12)(NC(=O)OC1[C@H]2C[C@@H]3C[C@@H](C[C@H]1C3)C2)C(=O)NCCc1cccc2ccccc12 (stereo partly drawn) [[2-(1H-Indol-3-yl)-1-methyl-1-(2-naphthalen-1-yl-ethylcarbamoyl)-ethyl]-carbamic acid adamantan-2-yl ester] | 89 nM |

target: Gastrin/cholecystokinin type B receptor (Cavia porcellus); experiment: as above; remark: another data set of the same source

| SMILES | Ki |
| --- | --- |
| CC(Cc1c[nH]c2ccccc12)(NC(=O)OC1[C@H]2C[C@@H]3C[C@@H](C[C@H]1C3)C2)C(=O)Nc1ccc2ccccc2c1 (stereo partly drawn) [[2-(1H-Indol-3-yl)-1-methyl-1-(naphthalen-2-ylcarbamoyl)-ethyl]-carbamic acid adamantan-2-yl ester] | 402 nM |
| CC(Cc1c[nH]c2ccccc12)(NC(=O)OC1[C@H]2C[C@@H]3C[C@@H](C[C@H]1C3)C2)C(=O)NCC(=O)O (stereo partly drawn) [[2-(Adamantan-2-yloxycarbonylamino)-3-(1H-indol-3-yl)-2-methyl-propionylamino]-acetic acid] | 986 nM |
| CC(Cc1c[nH]c2ccccc12)(C(=O)OC1[C@H]2C[C@@H]3C[C@@H](C[C@H]1C3)C2)C(=O)N(CCc1ccc(Cl)cc1Cl)CC(=O)O (stereo partly drawn) [N-Carboxymethyl-N-[2-(2,4-dichloro-phenyl)-ethyl]-2-(1H-indol-3-ylmethyl)-2-methyl-malonamic acid adamantan-2-yl ester] | 12 nM |
| COc1ccc(CCNC(=O)C(C)(Cc2c[nH]c3ccccc23)NC(=O)OC2[C@H]3C[C@@H]4C[C@@H](C[C@H]2C4)C3)cc1 (stereo partly drawn) [{2-(1H-Indol-3-yl)-1-[2-(4-methoxy-phenyl)-ethylcarbamoyl]-1-methyl-ethyl}-carbamic acid adamantan-2-yl ester] | 115 nM |
| CC(Cc1c[nH]c2ccccc12)(NC(=O)OC1[C@H]2C[C@@H]3C[C@@H](C[C@H]1C3)C2)C(=O)NCCc1ccc(Cl)cc1Cl (stereo partly drawn) [[1-[2-(2,4-Dichloro-phenyl)-ethylcarbamoyl]-2-(1H-indol-3-yl)-1-methyl-ethyl]-carbamic acid adamantan-2-yl ester] | 27 nM |
| CC(Cc1c[nH]c2ccccc12)(NC(=O)OC1[C@H]2C[C@@H]3C[C@@H](C[C@H]1C3)C2)C(=O)N(CCc1ccc(Cl)cc1Cl)CC(=O)O (stereo partly drawn) [{[2-(Adamantan-2-yloxycarbonylamino)-3-(1H-indol-3-yl)-2-methyl-propionyl]-[2-(2,4-dichloro-phenyl)-ethyl]-amino}-acetic acid] | 37 nM |
| CC(Cc1c[nH]c2ccccc12)(NC(=O)OC1[C@H]2C[C@@H]3C[C@@H](C[C@H]1C3)C2)C(=O)NCCc1ccc(Br)cc1 (stereo partly drawn) [[1-[2-(4-Bromo-phenyl)-ethylcarbamoyl]-2-(1H-indol-3-yl)-1-methyl-ethyl]-carbamic acid adamantan-2-yl ester] | 51 nM |

Results, then the compound that gave them:

| Ki | SMILES |
| --- | --- |
| 543 nM | CCOC(=O)CN(CCc1ccccc1)C(=O)C(C)(Cc1c[nH]c2ccccc12)NC(=O)OC1[C@H]2C[C@@H]3C[C@@H](C[C@H]1C3)C2 (stereo partly drawn) [{[2-(Adamantan-2-yloxycarbonylamino)-3-(1H-indol-3-yl)-2-methyl-propionyl]-phenethyl-amino}-acetic acid ethyl ester] |
| 79 nM | CC(Cc1c[nH]c2ccccc12)(NC(=O)OC1[C@H]2C[C@@H]3C[C@@H](C[C@H]1C3)C2)C(=O)NCCc1ccc([N+](=O)[O-])cc1 (stereo partly drawn) [{2-(1H-Indol-3-yl)-1-methyl-1-[2-(4-nitro-phenyl)-ethylcarbamoyl]-ethyl}-carbamic acid adamantan-2-yl ester] |
| 134 nM | CC(Cc1cccc2ccccc12)(NC(=O)OC1[C@H]2C[C@@H]3C[C@@H](C[C@H]1C3)C2)C(=O)N(CCc1ccccc1)CC(=O)O (stereo partly drawn) [{[2-(Adamantan-2-yloxycarbonylamino)-2-methyl-3-naphthalen-1-yl-propionyl]-phenethyl-amino}-acetic acid] |
| 231 nM | CC(Cc1c[nH]c2ccccc12)(NC(=O)OC1[C@H]2C[C@@H]3C[C@@H](C[C@H]1C3)C2)C(=O)NCc1ccccc1 (stereo partly drawn) [[1-Benzylcarbamoyl-2-(1H-indol-3-yl)-1-methyl-ethyl]-carbamic acid adamantan-2-yl ester] |

target: Cholecystokinin receptor type A (Rattus norvegicus) (UniProt P30551); experiment: Tested for binding affinity towards cholecystokinin type A receptor in rat pancreas by displacement of [3H]pCCK-8 radioligand

| SMILES | Ki |
| --- | --- |
| CC(Cc1ccc2ccccc2c1)(NC(=O)OC1[C@H]2C[C@@H]3C[C@@H](C[C@H]1C3)C2)C(=O)N(CCc1ccccc1)CC(=O)O (stereo partly drawn) [{[2-(Adamantan-2-yloxycarbonylamino)-2-methyl-3-naphthalen-2-yl-propionyl]-phenethyl-amino}-acetic acid] | 3010 nM |
